18 molecules from US12371454B2, “Cyclic peptide compound having Kras inhibitory action” (priority 2019, dated 2025) can be followed below.

Starred links: 1 amine or outer side, 2 acyl side, 3 side chain; linkers in the order of their positions; H or OH if unused. Positions of bridges follow the written chain, without caps; N, C: chain ends. Non-standard residues stand in square brackets, D forms with d. Residues, ends and D or L forms follow the SMILES beside them. *: point of attachment. hPhe(3-Cl-4-CF3) = N[C@@H](CCc1ccc(C(F)(F)F)c(Cl)c1)C(=O)O; NMePhe(4-CF3) = CN[C@@H](Cc1ccc(C(F)(F)F)cc1)C(=O)O; NMePhe(4-Me) = CN[C@@H](Cc1ccc(C)cc1)C(=O)O; NMedβ3hAla = C[C@H](CC(=O)[*:2])N(C)[*:1]; NMeGly(cPent) = CN[C@H](C(=O)O)C1CCCC1; NMeCha = CN[C@@H](CC1CCCCC1)C(=O)O; NMeF = CN[C@@H](Cc1ccccc1)C(=O)O; NMeI = CC[C@H](C)[C@H](NC)C(=O)O; NMeD = CN[C@@H](CC(=O)O)C(=O)O; NMeL = CN[C@@H](CC(C)C)C(=O)O; NMeNle = CCCC[C@H](NC)C(=O)O; NMeNva = CCC[C@H](NC)C(=O)O; NMeV = CN[C@H](C(=O)O)C(C)C; d(β3hA) = C[C@@H](N)CC(=O)O; NMeAbu = CC[C@H](NC)C(=O)O; NMeS = CN[C@@H](CO)C(=O)O; NMeA = CN[C@@H](C)C(=O)O; Piperidide = C1CCN(*)CC1; Pyrrolidide = C1CCN(*)C1; dNMeA = CN[C@H](C)C(=O)O; Ac5c = NC1(C(=O)O)CCCC1; Aze = O=C(O)[C@@H]1CCN1; Sar = CNCC(=O)O; Propyl = CCC*

In this assay the test system is Human pancreatic cancer cell line AsPC-1. The assay is described as follows: Measurement of AsPC-1 cell growth inhibition (AsPC-1 CGI). Format: cell-based. The conditions noted are these: 96 h. An outline of the steps:
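AsPC-1 cells in 15% FBS RPMI-1640 were exposed to test compound for 96 hours at 37° C, with CellTiter-Glo as endpoint.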
One may read the IC50 as the concentration that gives 50% inhibition. Turning to `CC[C@H](C)[C@@H]1NC(=O)[C@H](CC(C)C)N(C)C(=O)C[C@@H](C)NC(=O)[C@H](C2CCCC2)N(C)C(=O)C2(CCCC2)NC(=O)[C@@H]2CCCN2C(=O)[C@H](CCc2ccc(C(F)(F)F)c(Cl)c2)NC(=O)CN(C)C(=O)[C@H](CC2CCCCC2)N(C)C(=O)[C@@H]2CCN2C(=O)CN(C)C1=O` [Compound 1499] (cyclo([Ac5c][NMeGly(cPent)][d(β3hA)][NMeL]I[Sar][Aze][NMeCha][Sar][hPhe(3-Cl-4-CF3)]P)), the IC50 fell in the range of 100 to 500 nM. In the case of `CC[C@H](C)[C@@H]1NC(=O)[C@H](CC(C)C)N(C)C(=O)C[C@@H](C)NC(=O)[C@H](C2CCCC2)N(C)C(=O)C2(CCCC2)NC(=O)[C@@H]2CCCN2C(=O)[C@H](CCc2ccc(C(F)(F)F)c(Cl)c2)NC(=O)[C@@H](C)N(C)C(=O)[C@H](Cc2ccc(C)cc2)N(C)C(=O)[C@@H]2CCN2C(=O)[C@H](C)N(C)C1=O` [Compound 1504] (cyclo([Ac5c][NMeGly(cPent)][d(β3hA)][NMeL]I[NMeA][Aze][NMePhe(4-Me)][dNMeA][hPhe(3-Cl-4-CF3)]P)), the IC50 fell in the range of 100 to 500 nM. `CC[C@H](C)[C@@H]1NC(=O)[C@H](C)N(C)C(=O)C[C@@H](C)NC(=O)[C@H](C2CCCC2)N(C)C(=O)C2(CCCC2)NC(=O)[C@@H]2CCCN2C(=O)[C@H](CCc2ccc(C(F)(F)F)c(Cl)c2)NC(=O)CN(C)C(=O)[C@H](Cc2ccc(C(F)(F)F)cc2)N(C)C(=O)[C@@H]2CCN2C(=O)[C@H](C)N(C)C1=O` [Compound 1512] (cyclo([Ac5c][NMeGly(cPent)][d(β3hA)][NMeA]I[NMeA][Aze][NMePhe(4-CF3)][Sar][hPhe(3-Cl-4-CF3)]P)) had an IC50 of 50 to 100 nM.

In the case of `CC[C@H](C)[C@@H]1NC(=O)[C@H](C)N(C)C(=O)C[C@@H](C)NC(=O)[C@H](C2CCCC2)N(C)C(=O)C2(CCCC2)NC(=O)[C@@H]2CCCN2C(=O)[C@H](CCc2ccc(C(F)(F)F)c(Cl)c2)NC(=O)CN(C)C(=O)[C@H](Cc2ccc(C)cc2)N(C)C(=O)[C@@H]2CCN2C(=O)[C@H](C)N(C)C1=O` [Compound 1514] (cyclo([Ac5c][NMeGly(cPent)][d(β3hA)][NMeA]I[NMeA][Aze][NMePhe(4-Me)][Sar][hPhe(3-Cl-4-CF3)]P)), the IC50 was in the range of 100 to 500 nM. With `CC[C@H](C)[C@@H]1NC(=O)[C@H](CC(C)C)N(C)C(=O)C[C@@H](C(=O)N2CCCCC2)N(C)C(=O)[C@H](C(C)C)N(C)C(=O)C2(CCCC2)NC(=O)[C@@H]2CCCN2C(=O)[C@H](CCc2ccc(C(F)(F)F)c(Cl)c2)NC(=O)CN(C)C(=O)[C@H](CC2CCCCC2)N(C)C(=O)[C@@H]2CCN2C(=O)[C@H](Cc2ccccc2)N(C)C1=O` [Compound 1561] ([NMeL]I[NMeF][Aze][NMeCha][Sar][hPhe(3-Cl-4-CF3)]P[Ac5c][NMeV][NMeD]-Piperidide; lactam N-11), the IC50 lay within 100 to 500 nM. Consider `CCC[C@H]1C(=O)N[C@@H]([C@@H](C)CC)C(=O)N(C)[C@@H](C)C(=O)N2CC[C@H]2C(=O)N(C)[C@@H](CC2CCCCC2)C(=O)N(C)CC(=O)N[C@@H](CCc2ccc(C(F)(F)F)c(Cl)c2)C(=O)N2CCC[C@H]2C(=O)NC2(CCCC2)C(=O)N(C)[C@@H](C(C)C)C(=O)N[C@H](C)CC(=O)N1C` [Compound 1564] (cyclo([Ac5c][NMeV][d(β3hA)][NMeNva]I[NMeA][Aze][NMeCha][Sar][hPhe(3-Cl-4-CF3)]P)), for which the IC50 was 100 to 500 nM. On to `CC[C@H](C)[C@@H]1NC(=O)[C@H](CC(C)C)N(C)C(=O)C[C@@H](C(=O)N2CCCCC2)N(C)C(=O)[C@H](C(C)C)N(C)C(=O)C2(CCCC2)NC(=O)[C@@H]2CCCN2C(=O)[C@H](CCc2ccc(C(F)(F)F)c(Cl)c2)NC(=O)CN(C)C(=O)[C@H](CC2CCCCC2)N(C)C(=O)[C@@H]2CCN2C(=O)[C@H](CC)N(C)C1=O` [Compound 1569] ([NMeL]I[NMeAbu][Aze][NMeCha][Sar][hPhe(3-Cl-4-CF3)]P[Ac5c][NMeV][NMeD]-Piperidide; lactam N-11), for which the IC50 is 100 to 500 nM. In turn, `CCCC[C@H]1C(=O)N2CC[C@H]2C(=O)N(C)[C@@H](CC2CCCCC2)C(=O)N(C)CC(=O)N[C@@H](CCc2ccc(C(F)(F)F)c(Cl)c2)C(=O)N2CCC[C@H]2C(=O)NC2(CCCC2)C(=O)N(C)[C@@H](C(C)C)C(=O)N(C)[C@H](C(=O)N2CCCCC2)CC(=O)N(C)[C@@H](CC(C)C)C(=O)N[C@@H]([C@@H](C)CC)C(=O)N1C` [Compound 1596] ([NMeL]I[NMeNle][Aze][NMeCha][Sar][hPhe(3-Cl-4-CF3)]P[Ac5c][NMeV][NMeD]-Piperidide; lactam N-11) showed a half-maximal inhibitory concentration (IC50) of 100 to 500 nM. Take `CCC[C@H]1C(=O)N2CC[C@H]2C(=O)N(C)[C@@H](CC2CCCCC2)C(=O)N(C)CC(=O)N[C@@H](CCc2ccc(C(F)(F)F)c(Cl)c2)C(=O)N2CCC[C@H]2C(=O)NC2(CCCC2)C(=O)N(C)[C@@H](C(C)C)C(=O)N(C)[C@H](C(=O)N2CCCCC2)CC(=O)N(C)[C@@H](CC(C)C)C(=O)N[C@@H]([C@@H](C)CC)C(=O)N1C` [Compound 1601] ([NMeL]I[NMeNva][Aze][NMeCha][Sar][hPhe(3-Cl-4-CF3)]P[Ac5c][NMeV][NMeD]-Piperidide; lactam N-11): the IC50 lay within 100 to 500 nM.

Molecule `CCCC[C@H]1C(=O)N[C@@H]([C@@H](C)CC)C(=O)N(C)[C@@H](C)C(=O)N2CC[C@H]2C(=O)N(C)[C@@H](CC2CCCCC2)C(=O)N(C)CC(=O)N[C@@H](CCc2ccc(C(F)(F)F)c(Cl)c2)C(=O)N2CCC[C@H]2C(=O)NC2(CCCC2)C(=O)N(C)[C@@H](C(C)C)C(=O)N(C)[C@H](C(=O)N2CCCCC2)CC(=O)N1C` [Compound 1616] ([NMeNle]I[NMeA][Aze][NMeCha][Sar][hPhe(3-Cl-4-CF3)]P[Ac5c][NMeV][NMeD]-Piperidide; lactam N-11) showed an IC50 of 100 to 500 nM.

`CC[C@H](C)[C@@H]1NC(=O)[C@H](CC)N(C)C(=O)C[C@@H](C(=O)N2CCCCC2)N(C)C(=O)[C@H](C(C)C)N(C)C(=O)C2(CCCC2)NC(=O)[C@@H]2CCCN2C(=O)[C@H](CCc2ccc(C(F)(F)F)c(Cl)c2)NC(=O)CN(C)C(=O)[C@H](CC2CCCCC2)N(C)C(=O)[C@@H]2CCN2C(=O)[C@H](C)N(C)C1=O` [Compound 1638] ([NMeAbu]I[NMeA][Aze][NMeCha][Sar][hPhe(3-Cl-4-CF3)]P[Ac5c][NMeV][NMeD]-Piperidide; lactam N-11) showed an IC50 of 100 to 500 nM.

For the molecule `CCC[C@H]1C(=O)N[C@@H]([C@@H](C)CC)C(=O)N(C)[C@@H](C)C(=O)N2CC[C@H]2C(=O)N(C)[C@@H](CC2CCCCC2)C(=O)N(C)CC(=O)N[C@@H](CCc2ccc(C(F)(F)F)c(Cl)c2)C(=O)N2CCC[C@H]2C(=O)NC2(CCCC2)C(=O)N(C)[C@@H](C(C)C)C(=O)N(C)[C@H](C(=O)N2CCCCC2)CC(=O)N1C` [Compound 1639] ([NMeNva]I[NMeA][Aze][NMeCha][Sar][hPhe(3-Cl-4-CF3)]P[Ac5c][NMeV][NMeD]-Piperidide; lactam N-11), the IC50 fell in the range of 100 to 500 nM.

Regarding `CCCOC[C@H]1C(=O)N(C)CC(=O)N[C@@H](CCc2ccc(C(F)(F)F)c(Cl)c2)C(=O)N2CCC[C@H]2C(=O)NC2(CCCC2)C(=O)N(C)[C@@H](C(C)C)C(=O)N(C)[C@H](C(=O)N2CCCCC2)CC(=O)N(C)[C@@H](CC(C)C)C(=O)N[C@@H]([C@@H](C)CC)C(=O)N(C)[C@@H](C)C(=O)N2CC[C@H]2C(=O)N1C` [Compound 1646] ([NMeL]I[NMeA][Aze][NMeS](Propyl)[Sar][hPhe(3-Cl-4-CF3)]P[Ac5c][NMeV][NMeD]-Piperidide; lactam N-11), the IC50 was in the range of 100 to 500 nM. `CC[C@H](C)[C@@H]1NC(=O)[C@H](CC(C)C)N(C)C(=O)C[C@@H](C)N(C)C(=O)[C@H](C(C)C)N(C)C(=O)C2(CCCC2)NC(=O)[C@@H]2CCCN2C(=O)[C@H](CCc2ccc(C(F)(F)F)c(Cl)c2)NC(=O)CN(C)C(=O)[C@H](CC2CCCCC2)N(C)C(=O)[C@@H]2CCN2C(=O)CN(C)C1=O` [Compound 1648] (cyclo([Ac5c][NMeV][NMedβ3hAla][NMeL]I[Sar][Aze][NMeCha][Sar][hPhe(3-Cl-4-CF3)]P)) yielded an IC50 of 100 to 500 nM.

`CC[C@H](C)[C@@H]1NC(=O)[C@H](CC(C)C)N(C)C(=O)C[C@@H](C(=O)N(C)C)N(C)C(=O)[C@H](C(C)C)N(C)C(=O)C2(CCCC2)NC(=O)[C@@H]2CCCN2C(=O)[C@H](CCc2ccc(C(F)(F)F)c(Cl)c2)NC(=O)CN(C)C(=O)[C@H](Cc2ccc(C)cc2)N(C)C(=O)[C@@H]2CCN2C(=O)[C@H](C)N(C)C1=O` [Compound 1653] ([NMeL]I[NMeA][Aze][NMePhe(4-Me)][Sar][hPhe(3-Cl-4-CF3)]P[Ac5c][NMeV][NMeD]-NMe2; lactam N-11) came in with an IC50 of 50 to 100 nM. The molecule `CC[C@H](C)[C@@H]1NC(=O)[C@H](CC(C)C)N(C)C(=O)C[C@@H](C)NC(=O)[C@H]([C@@H](C)CC)N(C)C(=O)C2(CCCC2)NC(=O)[C@@H]2CCCN2C(=O)[C@H](CCc2ccc(C(F)(F)F)c(Cl)c2)NC(=O)CN(C)C(=O)[C@H](CC2CCCCC2)N(C)C(=O)[C@@H]2CCN2C(=O)[C@H](C)N(C)C1=O` [Compound 1654] (cyclo([Ac5c][NMeI][d(β3hA)][NMeL]I[NMeA][Aze][NMeCha][Sar][hPhe(3-Cl-4-CF3)]P)) yielded an IC50 of 50 to 100 nM.

For `CC[C@H](C)[C@@H]1NC(=O)[C@H](CC(C)C)N(C)C(=O)C[C@@H](C(=O)N2CCCCC2)N(C)C(=O)[C@H](CC(C)C)N(C)C(=O)C2(CCCC2)NC(=O)[C@@H]2CCCN2C(=O)[C@H](CCc2ccc(C(F)(F)F)c(Cl)c2)NC(=O)CN(C)C(=O)[C@H](CC2CCCCC2)N(C)C(=O)[C@@H]2CCN2C(=O)[C@H](C)N(C)C1=O` [Compound 1657] ([NMeL]I[NMeA][Aze][NMeCha][Sar][hPhe(3-Cl-4-CF3)]P[Ac5c][NMeL][NMeD]-Piperidide; lactam N-11), the IC50 was in the range of 100 to 500 nM.

Turning to `CC[C@H](C)[C@@H]1NC(=O)[C@H](CC(C)C)N(C)C(=O)C[C@@H](C(=O)N2CCCC2)N(C)C(=O)[C@H](C(C)C)N(C)C(=O)C2(CCCC2)NC(=O)[C@@H]2CCCN2C(=O)[C@H](CCc2ccc(C(F)(F)F)c(Cl)c2)NC(=O)CN(C)C(=O)[C@H](CC2CCCCC2)N(C)C(=O)[C@@H]2CCN2C(=O)CN(C)C1=O` [Compound 1670] ([NMeL]I[Sar][Aze][NMeCha][Sar][hPhe(3-Cl-4-CF3)]P[Ac5c][NMeV][NMeD]-Pyrrolidide; lactam N-11), the IC50 lay in the range of 100 to 500 nM.
